{
  "source": "patent US20190083508A1",
  "about": "“USE OF OX1R ANTAGONISTS FOR THE TREATMENT OF INFLAMMATORY BOWEL DISEASES” (Inserm (Institut National De La Sante et de la Recherche …, priority 2014, published 2019)",
  "key": {"DSS-treated mice": {"tested_on": "DSS-treated mice", "assay": "Length of colon from DSS-treated mice mimicking acute ulcerative colitis", "type": "in vivo", "settings": "5% DSS in drinking water; daily ip 20 μg; one week", "protocol": "FIG. 8: Effect of daily ip inoculation of OxA, Suvorexant and Almorexant on the length of colon from DSS- (dextran sulfate sodium) treated mice mimicking the acute ulcerative colitis disease. A. Mice were treated with 5% (w/v) DSS in drinking water and daily injected with 20 μg of OxA (OXA IP), 20 μg of Suvorexant (Suvo) or 20 μg of Almorexant (Almo). Control (wt) or treated DSS mice (DSS) were daily injected with 100 μl PBS. After one week of treatment, mice were sacrificed and the length of colon which represented a good marker of inflammation state, was measured. […] B. quantification of colon length from 5 different DSS-treated mice injected with OxA (DSS+OXA IP), Almorexant (DSS+Almo), Suvorexant (DSS+Suvo) or not injected (WT and DSS). NS, no significant; *, p<0.05; ** p<0.001\nThe inventors also investigated the effect of daily intraperitoneal inoculation of OxA, Suvorexant and Almorexant on the length of colon from DSS- (dextran sulfate sodium) treated mice mimicking the acute ulcerative colitis disease."}, "[1]": {"tested_on": "colon adenocarcinoma HT-29 cells", "assay": "Cell growth determination, HT-29 cells", "type": "cell-based", "settings": "48 hr, 0.1 μM OxA or increasing concentrations of SB408124", "protocol": "(§1) FIG. 6: Determination of the inhibition of cellular growth of HEK-OX1R cells and colon adenocarcinoma cells (HT-29) induced by 0.1 μM of OxA or various concentrations of SB408124 antagonist. HEK-OX1R cells (black column) and HT-29 cells (white column) were incubated with 0.1 μM of OxA and indicated increasing concentration of SB408124, and cells were counted after 48 hr incubation. Results are expressed as the percentage of total viable cells.\n(§2) HEK-OX1R cells or colon adenocarcinoma HT-29 cells were seeded, grown and maintained at 37° C. in a humidified 5% CO2/air incubator. After 24 hr culture, cells were treated with or without Orexin-A peptide or SB408124 antagonist, previously dissolved in DMSO, to be tested at the concentration indicated in the figure legends. After 48 hr of treatment, adherent cells were harvested by TriplE (Life Technologies, Saint Aubin, France) and manually counted. Apoptosis was determined using the Guava PCA system and the Guava nexin kit."}, "HEK-OX1R cells": {"tested_on": "HEK-OX1R cells", "assay": "Cell growth determination, HEK-OX1R cells", "type": "cell-based", "settings": "48 hr, 0.1 μM OxA or increasing concentrations of SB408124", "protocol": "as §1, §2"}, "OX1R": {"molecular_target": "T1, OX1R (Homo sapiens, UniProt O43613)", "T1 construct": "HEK cells expressing recombinant native OX1R (HEK-OX1R); expressed in transfected cells; host or cells: HEK cells (HEK-OX1R)", "T1 sequence (O43613 1-425)": "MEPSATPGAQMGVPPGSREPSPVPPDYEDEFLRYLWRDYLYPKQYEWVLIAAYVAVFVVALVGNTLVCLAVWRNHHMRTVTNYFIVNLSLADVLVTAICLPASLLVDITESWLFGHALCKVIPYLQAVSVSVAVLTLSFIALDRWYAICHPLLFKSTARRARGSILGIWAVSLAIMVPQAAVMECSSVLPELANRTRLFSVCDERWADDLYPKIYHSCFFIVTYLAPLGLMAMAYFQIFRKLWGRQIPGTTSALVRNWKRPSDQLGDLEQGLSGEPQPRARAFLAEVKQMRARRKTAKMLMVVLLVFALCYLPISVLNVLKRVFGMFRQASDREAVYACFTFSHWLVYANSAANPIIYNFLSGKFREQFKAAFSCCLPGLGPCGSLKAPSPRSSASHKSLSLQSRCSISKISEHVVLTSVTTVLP", "assay": "Ca2+ mobilization assay in HEK-OX1R cells (FluoForte)", "type": "cell-based", "protocol": "FIG. 5: Effect of orexin-A and SB408124 antagonist on Ca2+ mobilization in HEK-OX1R cells. Top, HEK-OX1R cells were incubated with fluorescence probe (FluoForte) for 45 min. at 37° C. according to FluoForte calcium assay kit (Enzo Life Sciences). 1 μM of OxA was added to cells and fluorescence emission was measured on TECAN Infinite 200 fluorospectrophotometer. Bottom, HEK-OX1R cells were incubated with fluorescence probe (FluoForte) for 45 min. at 37° C. and then incubated with 1 μM of SB408124 for 1 h at 37° C. After pre-incubation, 1 μM of OxA was added to cells and fluorescence emission was measured.\nHEK cells expressing recombinant native OX1R (HEK-OX1R) cells were seeded in 96-wells plate, grown and maintained at 37° C. in a humidified 5% CO2/air incubator. 80,000 cells/well were incubated with FluoForte probe according to FluoForte calcium assay kit (ENZO life Sciences, Farmingdale, N.Y., USA) for 45 min. at 37° C. and then incubated with or without 1 μM of […] antagonist for 1 h at 37° C. After pre-incubation, 1 μM of OxA was added and fluorescence was determined using TECAN Infinite 200 fluorospectrophotometer."}, "[2]": {"tested_on": "colon adenocarcinoma HT-29 cells", "assay": "Apoptosis assay (annexin V-PE binding), HT-29 cells", "type": "cell-based", "settings": "48 h, 1 μM orexin-A or various concentrations of SB408124", "protocol": "FIG. 7: Effect of orexin-A and SB408124 antagonist on apoptosis in OX1R expressing colon adenocarcinoma cells, HT-29. HT-29 cells were challenged with 1 μM orexin-A or various concentration of SB408124 for 48 h. Apoptosis was measured by determination of annexin V-PE binding, and results are expressed as the percentage of apoptotic cells. Results are means±SE of three experiments. ***P<0.001.\nas §2"}, "DSS-induced colitis mice [3]": {"tested_on": "DSS-induced colitis mice", "assay": "Cytokine assays in colon extracts of DSS-induced colitis mice", "type": "in vivo", "settings": "daily ip 0.22 μmoles/kg, 7 days", "protocol": "FIG. 3: OXA effects on cytokines secretion in DSS-induced colitis mice. Right, Colons of DSS untreated mice (white), DSS treated mice (gray) and DSS treated mice associated to OxA treatment (black) were resected after animal sacrifice. Then, protein extraction was performed by tissue disruption. Cytokines were determined using Cytokine CBA kits (see Material and Methods). Left, after colon resection, RNA were extracted from colonic tissue and qPCR was performed using specific oligonucleotides for IL8 homolog and IL1B.\nThese observations are confirmed by histologic aspect of colon epithelium (histologic scoring by a GI pathologist). Thus, OxA has probably an anti-inflammatory effect on DSS-induced colitis. To confirm this hypothesis, we have investigated the anti-inflammatory effect of OxA treatment on cytokines secretion in colon extracts from DSS-treated mice. […] In contrast, OxA has no effect on INFγ, IL10, and IL12 cytokine secretion in colon extracts (FIG. 3).\nBalb/c mice were orally treated by 5% (w/v) of Dextran Sulfate Sodium (DSS) for 7 days. Orexin treatment was carried out in DSS treated mice by daily intraperitoneal injection of OxA (0.22 μmoles/kg) for 7 days. Weight and colitis symptoms (diarrhea, blood in the stool . . . ) for each mouse was daily measured. After 7 days of treatment, animals were sacrificed and colons were resected to further analyses (size, histological aspect, cytokine assays). […] mice (IL10^−/− and Nox1^−/−) which develop a spontaneous colitis at 6/7 weeks of age were treated or not with OxA (0.22 μmoles/kg, 2 intraperitoneal injection/week for 21 days). After animal sacrifice colons were resected and histologic analysis was performed.\nMice were sacrificed and colons were resected. Proteins were extracted from colon by tissue disruption in PBS using Tissue Lyser (Qiagen, Courtaboeuf, France). Various cytokines (see FIG. 3) were determined using Cytokine CBA kits (BD Sciences, Le Pont de Claix, France)."}, "EXCY2 mice": {"tested_on": "EXCY2 mice", "assay": "Spontaneous UC-like colitis in EXCY2 mice (IL10-/-; Nox1-/-), colon histology", "type": "in vivo", "settings": "10 week-old EXCY2 mice, 0.22 μmoles/kg, 2 IP/week during 3 weeks", "protocol": "FIG. 4: Histological aspect of colon mucosa in OxA treated EXCY2 mice (right) and non-treated EXCY2 mice (left). EXCY2 mice genetically invalidated for IL10 and Nox1 genes (IL10^−/− and Nox1^−/−) which develop spontaneous UC-like disease, were treated with OxA (0.22 μmoles/kg, 2 intraperitoneal injection/week for 21 days) (right) or untreated (left). After animal sacrifice colons were resected and histologic analysis was performed.\nDSS mouse model has been extensively used to decipher the mucosal inflammation in IBD, UC pathogenesis, and preclinical studies. However, mice show differential susceptibilities and responsiveness to DSS-induced colitis depending on their genetic background, gender. DSS model is a faithful model of inflammation but departs from Ulcerative Colitis in part for lack of the inflammation gradient from the rectum to the proximal colon usually observed in UC, any deregulation of ER stress in goblet cells known to be an early etiological factor of UC, and no digestive or extra-digestive complications of UC such as cholangitis and colorectal cancer, respectively. The use of genetically modified mice model represents a good alternative to chemically-induced colitis mice model. […]\n(§3) Balb/c mice were orally treated by 5% (w/v) of Dextran Sulfate Sodium (DSS) for 7 days. […] Weight and colitis symptoms (diarrhea, blood in the stool . . . ) for each mouse was daily measured. […]"}, "DSS-induced colitis mice [4]": {"tested_on": "DSS-induced colitis mice", "assay": "DSS-induced colitis mice, Disease Activity Index", "type": "in vivo, Balb/c mice", "settings": "5% DSS orally 7 days; daily ip 0.22 μmoles/kg", "source_text": "FIG. 2: OXA ameliorates the DAI (weight and colitis score) of DSS-induced colitis mice. Mice were orally treated with 5% DSS for 7 days in the presence or in the absence of daily intraperitoneal injection of OxA (0.22 μmoles/kg). Left, determination of gain or loss of weight in the absence of DSS treatment (Control, ▴), in the presence of DSS treatment (DSS, ▪) and in the presence of DSS associated to OxA treatment (DSS+OxA, ●). Right, evaluation of Disease Activity Index (DAI) scored by measuring weight, length of colon, diarrhea and blood presence in the stool in DSS untreated control mice (Control, ▴), in DSS treated mice (DSS, ▪) and in DSS treated mice associated to OxA treatment (DSS+OxA, ●).\nBased on these observations, we have investigated the effect of Orexin A (OxA) on acute inflammation in mice treated with Dextran Sulfate Sodium (DSS). OxA was preferentially chosen in these experiments since the presence of two disulphide bridges confers it more stability. DSS induces acute colitis characterized by weight loss, bloody diarrhea, intestinal ulcerations and infiltrations with granulocytes.\nas §3"}},
  "note": "No end group written: not given here.",
  "data": [
    {"compound": "CNC(=O)[C@@H](c1ccccc1)N1CCc2cc(OC)c(OC)cc2[C@@H]1CCc1ccc(C(F)(F)F)cc1", "note": "[Almorexant]", "values": [
      {"measurement": "Protection from DSS induced acute ulcerative colitis (colon length)", "setting": "DSS-treated mice", "value": "protect mice from DSS induced acute ulcerative colitis disease"}
    ]},
    {"compound": "Cc1cc(NC(=O)Nc2ccc(N(C)C)cc2)c2cc(F)cc(F)c2n1", "note": "[SB408124]", "values": [
      {"measurement": "Inhibition of cellular growth", "setting": "[1]", "value": "induced also a strong inhibition in a dose-dependent manner of cellular growth"},
      {"measurement": "Inhibition of cellular growth", "setting": "HEK-OX1R cells", "value": "induced also a strong inhibition in a dose-dependent manner of cellular growth"},
      {"measurement": "Effect on OxA-induced Ca2+ mobilization (antagonist effect)", "setting": "OX1R; 1 μM preincubation 1 h, then 1 μM OxA", "value": "totally abolished the induced-Ca^2+ mobilization"},
      {"measurement": "Apoptosis (annexin V-PE binding)", "setting": "[2]", "value": "able to induce in a dose-dependent manner cell apoptosis"}
    ]},
    {"compound": "Cc1ccc(-n2nccn2)c(C(=O)N2CCN(c3nc4cc(Cl)ccc4o3)CC[C@H]2C)c1", "note": "[Suvorexant]", "values": [
      {"measurement": "Protection from DSS induced acute ulcerative colitis (colon length)", "setting": "DSS-treated mice", "value": "protect mice from DSS induced acute ulcerative colitis disease"}
    ]},
    {"compound": "OxA: Orexin A peptide with two disulphide bridges, agonist of OX1R (QPLPDCCRQKTCSCRLYELLHGAGNHAAGILTL; disulfide (positions not given here); ends not checked; also: two disulphide bridges, places not given here; UniProt O43612 34-66, looked up)", "values": [
      {"measurement": "Inhibition of cellular growth", "setting": "[1]", "value": "induced a strong inhibition of cellular growth"},
      {"measurement": "IL6 secretion in colon extracts", "setting": "DSS-induced colitis mice [3]", "value": "reduces the secretion"},
      {"measurement": "IL10 secretion in colon extracts", "setting": "DSS-induced colitis mice [3]", "value": "has no effect"},
      {"measurement": "IL12 secretion in colon extracts", "setting": "DSS-induced colitis mice [3]", "value": "has no effect"},
      {"measurement": "INFγ secretion in colon extracts", "setting": "DSS-induced colitis mice [3]", "value": "has no effect"},
      {"measurement": "TNFα secretion in colon extracts", "setting": "DSS-induced colitis mice [3]", "value": "reduces the secretion"},
      {"measurement": "IL1B in colon extracts", "setting": "DSS-induced colitis mice [3]; qPCR per FIG. 3", "value": "reduces the secretion"},
      {"measurement": "IL8 homolog in colon extracts", "setting": "DSS-induced colitis mice [3]; qPCR per FIG. 3", "value": "reduces the secretion"},
      {"measurement": "Effect on severe spontaneous colitis", "setting": "EXCY2 mice", "value": "alleviated severe colitis"},
      {"measurement": "Histological aspect of colonic mucosa (crypts aspect, crypt size, goblet cells, immune cells infiltration)", "setting": "EXCY2 mice; vs vehicle treated", "value": "exhibited a normal colonic mucosa"},
      {"measurement": "Protection from DSS induced acute ulcerative colitis (colon length)", "setting": "DSS-treated mice", "value": "protect mice from DSS induced acute ulcerative colitis disease"},
      {"measurement": "Inhibition of cellular growth", "setting": "HEK-OX1R cells", "value": "induced a strong inhibition of cellular growth"},
      {"measurement": "Disease Activity Index (DAI) scored by weight, length of colon, diarrhea and blood in the stool", "setting": "DSS-induced colitis mice [4]", "value": "ameliorates"},
      {"measurement": "Ca2+ mobilization (agonist effect)", "setting": "OX1R; 1 μM", "value": "induced a large and transient Ca^2+ mobilization"},
      {"measurement": "Apoptosis (annexin V-PE binding)", "setting": "[2]", "value": "induced an apoptotic effect"}
    ]}
  ]
}
